Legend:
[1] = system: A431 (wild type EGFR, skin cancer); test: Cell proliferation assay (MTT); type: cell-based; details: Homo sapiens, A-431, 72 h, three days
Description: (§1) A431 cells, H1975 and Ba/F3 cells expressing various mutant EGFR were harvested from exponential phase cultures and seeded in 96-well plates at a cell density of 3000 per well for A431 and H1975, and 10000 per well for Ba/F3 cells. After overnight attachment, compounds were 3-fold serially diluted and applied to cells at 30 μM, 10 μM, 3 μM, 1 μM, 0.3 μM, […], 0.03 μM and 0.01 μM with triplicates, and incubated for three days. 20 μL of 5 mg/mL MTT was added afterwards followed by the further addition of 50 μL 10% SDS together with 5% isobutyl alcohol in 0.01 mol/L HCl. The plates were incubated overnight. Absorbance (A) at a wavelength of 570 nm was quantified. Percentage of inhibition was used for the calculation of IC50 based on the bliss method.

EGFR-WT = EGFR-WT (Homo sapiens, UniProt P00533); test: Wild-type EGFR biochemical activity assay (HTRF)
Description: (§2) Assay 1: Wild-type EGFR, HER2 and HER4, and mutant EGFR biochemical activity assay
(§3) 10 nL of Serially diluted compounds were transferred to assay plates using the labcyte Echo 550, and 5 uL of 2× enzymes in assay buffer were subsequently dispensed. The assay plate was covered with an adhesive plate seal, and briefly spinned for 30 s at 1000 g. 5 uL of 2× TK-substrate-biotin and ATP mixed in assay buffer were added.
(§4) IC50 was calculated and analyzed using a 4 parametric logistic model.

EGFR A763_Y764insFHEA = EGFR A763_Y764insFHEA (Homo sapiens, UniProt P00533, INS763FHEA); test: Mutant EGFR biochemical activity assay (HTRF); details: read-out: IC50 (nM) EGFR A763_Y764 insFHEA
Description: as §2, §3, §4

EGFR D770-N771insNPG = EGFR D770-N771insNPG (Homo sapiens, UniProt P00533, INS770NPG); test: Mutant EGFR biochemical activity assay (HTRF)
Chain of EGFR D770-N771insNPG (P00533 with tags, fused parts or gaps INS770NPG limits assumed): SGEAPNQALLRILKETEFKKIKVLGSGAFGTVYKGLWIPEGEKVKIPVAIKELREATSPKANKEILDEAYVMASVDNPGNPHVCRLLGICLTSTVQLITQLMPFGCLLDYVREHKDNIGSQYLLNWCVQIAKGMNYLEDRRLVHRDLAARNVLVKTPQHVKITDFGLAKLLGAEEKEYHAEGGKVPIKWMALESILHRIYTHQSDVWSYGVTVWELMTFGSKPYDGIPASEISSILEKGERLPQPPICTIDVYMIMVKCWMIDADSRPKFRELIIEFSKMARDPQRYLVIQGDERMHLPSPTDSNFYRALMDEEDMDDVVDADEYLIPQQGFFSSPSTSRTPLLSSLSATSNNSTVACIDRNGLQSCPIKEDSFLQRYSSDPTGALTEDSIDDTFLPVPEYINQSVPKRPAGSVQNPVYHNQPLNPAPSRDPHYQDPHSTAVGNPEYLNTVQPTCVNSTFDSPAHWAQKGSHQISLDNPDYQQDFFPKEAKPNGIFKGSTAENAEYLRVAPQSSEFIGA
Description: as §2, §3, §4

EGFR D770GY = EGFR D770GY (Homo sapiens, UniProt P00533, D770Y/INS769G); test: Mutant EGFR biochemical activity assay (HTRF)
Chain of EGFR D770GY (P00533 with tags, fused parts or gaps INS769G/D770Y limits assumed): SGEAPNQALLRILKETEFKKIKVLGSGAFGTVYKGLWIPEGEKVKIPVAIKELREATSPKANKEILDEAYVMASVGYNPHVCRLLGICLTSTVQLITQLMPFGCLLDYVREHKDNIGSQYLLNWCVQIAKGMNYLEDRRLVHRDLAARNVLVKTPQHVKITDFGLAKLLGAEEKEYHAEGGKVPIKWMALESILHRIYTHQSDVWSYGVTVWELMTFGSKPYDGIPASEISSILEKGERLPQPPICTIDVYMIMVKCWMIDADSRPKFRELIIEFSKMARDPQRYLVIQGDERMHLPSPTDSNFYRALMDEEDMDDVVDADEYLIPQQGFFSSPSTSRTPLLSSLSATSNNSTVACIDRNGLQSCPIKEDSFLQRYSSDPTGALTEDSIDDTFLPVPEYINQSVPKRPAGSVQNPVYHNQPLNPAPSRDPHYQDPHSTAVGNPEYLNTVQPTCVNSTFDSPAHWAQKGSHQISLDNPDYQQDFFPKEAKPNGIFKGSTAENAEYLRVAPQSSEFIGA
Description: as §2, §3, §4

[2] = molecular target: EGFR D770_N771insNPG T790M (Homo sapiens, UniProt P00533, INS770NPG/T790M); test: Mutant EGFR biochemical activity assay (HTRF); details: read-out: IC50 (nM) EGFR D770_N771 insNPG T790M
Description: as §2, §3, §4

EGFR Del19 = EGFR Del19 (Homo sapiens, UniProt P00533); test: Mutant EGFR biochemical activity assay (HTRF)
Chain of EGFR Del19 (P00533 with tags, fused parts or gaps DEL746-750): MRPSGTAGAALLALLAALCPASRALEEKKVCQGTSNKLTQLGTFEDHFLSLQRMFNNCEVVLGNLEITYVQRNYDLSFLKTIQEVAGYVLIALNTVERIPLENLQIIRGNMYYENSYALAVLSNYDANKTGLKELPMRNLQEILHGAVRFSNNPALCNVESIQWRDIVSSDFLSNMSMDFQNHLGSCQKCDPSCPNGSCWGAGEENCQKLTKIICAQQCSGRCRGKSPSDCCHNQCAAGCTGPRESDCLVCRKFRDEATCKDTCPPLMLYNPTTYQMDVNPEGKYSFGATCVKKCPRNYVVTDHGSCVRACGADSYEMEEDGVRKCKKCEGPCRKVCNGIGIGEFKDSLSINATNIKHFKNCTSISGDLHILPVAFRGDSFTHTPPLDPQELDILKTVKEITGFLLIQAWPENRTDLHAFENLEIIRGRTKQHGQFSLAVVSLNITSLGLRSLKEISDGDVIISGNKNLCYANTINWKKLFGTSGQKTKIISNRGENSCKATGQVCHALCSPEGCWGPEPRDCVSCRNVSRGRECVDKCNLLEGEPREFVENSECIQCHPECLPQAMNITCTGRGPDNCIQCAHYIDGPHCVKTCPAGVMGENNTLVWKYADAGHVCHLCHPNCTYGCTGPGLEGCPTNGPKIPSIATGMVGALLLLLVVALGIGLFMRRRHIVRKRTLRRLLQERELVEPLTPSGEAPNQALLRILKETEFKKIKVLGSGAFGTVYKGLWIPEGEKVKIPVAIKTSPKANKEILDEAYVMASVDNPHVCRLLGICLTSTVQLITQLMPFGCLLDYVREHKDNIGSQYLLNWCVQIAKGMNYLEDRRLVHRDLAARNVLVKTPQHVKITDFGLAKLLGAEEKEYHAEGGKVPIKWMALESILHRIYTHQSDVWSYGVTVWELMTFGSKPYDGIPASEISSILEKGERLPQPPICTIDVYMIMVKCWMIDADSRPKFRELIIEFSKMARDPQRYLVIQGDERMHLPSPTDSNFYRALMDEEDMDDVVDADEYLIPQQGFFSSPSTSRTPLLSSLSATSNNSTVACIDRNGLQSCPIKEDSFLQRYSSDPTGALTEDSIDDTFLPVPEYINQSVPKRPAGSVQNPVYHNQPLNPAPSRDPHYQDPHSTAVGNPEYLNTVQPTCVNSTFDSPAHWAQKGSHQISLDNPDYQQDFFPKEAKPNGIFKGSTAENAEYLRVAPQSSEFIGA
Description: as §2, §3, §4

EGFR L792F = EGFR L792F (Homo sapiens, UniProt P00533, L792F); test: Mutant EGFR biochemical activity assay (HTRF)
Chain of EGFR L792F (P00533 25-1210 L792F): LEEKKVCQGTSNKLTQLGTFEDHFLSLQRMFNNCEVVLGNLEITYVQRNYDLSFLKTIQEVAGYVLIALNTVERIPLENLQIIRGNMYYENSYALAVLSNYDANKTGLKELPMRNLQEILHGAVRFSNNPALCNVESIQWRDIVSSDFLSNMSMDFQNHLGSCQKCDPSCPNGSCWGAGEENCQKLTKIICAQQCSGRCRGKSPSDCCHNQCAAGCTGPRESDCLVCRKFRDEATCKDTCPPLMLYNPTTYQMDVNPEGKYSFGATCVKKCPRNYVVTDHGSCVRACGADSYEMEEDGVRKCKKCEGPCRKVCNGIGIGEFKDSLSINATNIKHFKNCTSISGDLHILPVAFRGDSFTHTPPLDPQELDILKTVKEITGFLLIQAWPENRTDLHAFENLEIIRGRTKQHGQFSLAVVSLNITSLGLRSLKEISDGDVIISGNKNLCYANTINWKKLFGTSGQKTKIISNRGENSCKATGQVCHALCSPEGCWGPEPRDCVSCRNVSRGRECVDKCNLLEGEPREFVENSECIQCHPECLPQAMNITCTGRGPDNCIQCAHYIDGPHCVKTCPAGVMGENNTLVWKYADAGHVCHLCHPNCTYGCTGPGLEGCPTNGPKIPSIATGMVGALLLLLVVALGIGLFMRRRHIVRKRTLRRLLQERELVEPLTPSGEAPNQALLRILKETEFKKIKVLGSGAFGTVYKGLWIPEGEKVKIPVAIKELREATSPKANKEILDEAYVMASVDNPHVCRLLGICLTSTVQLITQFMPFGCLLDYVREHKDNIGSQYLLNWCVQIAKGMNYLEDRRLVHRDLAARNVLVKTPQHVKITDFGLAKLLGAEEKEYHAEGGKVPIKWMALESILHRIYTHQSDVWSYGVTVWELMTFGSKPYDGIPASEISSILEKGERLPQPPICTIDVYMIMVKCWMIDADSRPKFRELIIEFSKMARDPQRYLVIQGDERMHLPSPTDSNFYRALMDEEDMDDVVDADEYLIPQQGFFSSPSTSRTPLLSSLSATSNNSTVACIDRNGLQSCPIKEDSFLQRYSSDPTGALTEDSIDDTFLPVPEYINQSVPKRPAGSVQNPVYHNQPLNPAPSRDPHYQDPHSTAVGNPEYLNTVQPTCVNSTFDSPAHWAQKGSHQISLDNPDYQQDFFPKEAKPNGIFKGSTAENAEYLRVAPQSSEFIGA
Description: as §2, §3, §4

EGFR L792H = EGFR L792H (Homo sapiens, UniProt P00533, L792H); test: Mutant EGFR biochemical activity assay (HTRF)
Description: as §2, §3, §4

EGFR T790M = EGFR T790M (Homo sapiens, UniProt P00533, T790M); test: Mutant EGFR biochemical activity assay (HTRF)
Description: as §2, §3, §4

EGFR T790M/L858R = EGFR T790M/L858R (Homo sapiens, UniProt P00533, L858R/T790M); test: Mutant EGFR biochemical activity assay (HTRF)
Description: as §2, §3, §4

HER2 = HER2 (Homo sapiens, UniProt P04626); test: HER2 biochemical activity assay (HTRF)
Description: as §2, §3, §4

HER4 = HER4 (Homo sapiens, UniProt Q15303); test: HER4 biochemical activity assay (HTRF)
Description: as §2, §3, §4

[3] = molecular target: Ba/F3_EGFR D770_N771insSVD (Homo sapiens, UniProt P00533, DUP768-770, cells depend on it); test: Cell proliferation assay (MTT); type: cell-based; details: three days, read-out: Ba/F3_EGFR D770_N771insSVD IC50
Description: as §1

[4] = molecular target: Ba/F3_EGFR V769_D770insASV (Homo sapiens, UniProt P00533, DUP767-769, cells depend on it); test: Cell proliferation assay (MTT); type: cell-based; details: three days, read-out: Ba/F3_EGFR V769_D770insASV IC50
Chain of Ba/F3_EGFR V769_D770insASV (P00533 with tags, fused parts or gaps DUP767-769): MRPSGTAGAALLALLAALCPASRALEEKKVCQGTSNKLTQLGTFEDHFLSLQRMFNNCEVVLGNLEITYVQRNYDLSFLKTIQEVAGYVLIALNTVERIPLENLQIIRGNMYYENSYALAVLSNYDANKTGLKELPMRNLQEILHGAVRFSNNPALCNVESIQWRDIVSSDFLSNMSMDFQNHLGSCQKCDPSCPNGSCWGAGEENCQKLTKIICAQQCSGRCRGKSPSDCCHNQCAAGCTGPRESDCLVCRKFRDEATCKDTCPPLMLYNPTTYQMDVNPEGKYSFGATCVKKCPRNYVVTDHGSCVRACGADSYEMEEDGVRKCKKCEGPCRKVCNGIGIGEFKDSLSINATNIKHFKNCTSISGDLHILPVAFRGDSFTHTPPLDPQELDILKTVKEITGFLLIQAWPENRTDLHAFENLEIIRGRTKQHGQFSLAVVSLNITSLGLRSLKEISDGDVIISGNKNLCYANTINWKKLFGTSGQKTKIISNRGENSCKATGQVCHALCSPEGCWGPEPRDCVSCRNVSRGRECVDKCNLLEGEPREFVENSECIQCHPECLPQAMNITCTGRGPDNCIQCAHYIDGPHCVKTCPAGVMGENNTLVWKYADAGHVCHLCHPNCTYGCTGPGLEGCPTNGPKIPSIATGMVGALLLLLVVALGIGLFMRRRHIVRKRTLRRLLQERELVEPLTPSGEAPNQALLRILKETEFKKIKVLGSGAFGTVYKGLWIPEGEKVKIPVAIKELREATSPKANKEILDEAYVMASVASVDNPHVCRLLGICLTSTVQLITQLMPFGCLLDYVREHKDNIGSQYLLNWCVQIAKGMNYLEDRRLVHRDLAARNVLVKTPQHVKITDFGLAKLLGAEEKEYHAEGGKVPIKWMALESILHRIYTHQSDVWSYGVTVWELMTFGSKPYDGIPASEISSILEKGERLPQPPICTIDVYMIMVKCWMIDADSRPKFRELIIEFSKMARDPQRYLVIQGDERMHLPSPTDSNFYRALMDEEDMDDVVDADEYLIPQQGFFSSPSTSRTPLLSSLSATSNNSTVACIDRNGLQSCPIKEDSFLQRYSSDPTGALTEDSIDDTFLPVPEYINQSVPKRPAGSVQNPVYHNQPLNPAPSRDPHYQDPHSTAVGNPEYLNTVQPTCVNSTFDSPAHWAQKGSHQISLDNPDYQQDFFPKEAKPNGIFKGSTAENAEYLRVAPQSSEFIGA
Description: as §1

[5] = system: H1975 (EGFR L858R/T790M, NSCLC); test: Cell proliferation assay (MTT); type: cell-based; details: Homo sapiens, NCI-H1975, 72 h, three days
Description: as §1

LU-01-0426 = test: Patient derived xenograft (PDX) mouse model; type: in vivo, nude mice; details: LU-01-0426, 0.5 mg/kg poziotinib
Description: (§5) Assay 3. In vivo studies in cell line-derived (CDX) and patient derived xenografts (PDX) mouse models
(§6) Cells (H1975) or tissue pieces (LU0493 and LU0426) were implanted subcutaneously into the left armpit of nude mice. When the average tumor volume reached 100-150 mm^3, mice were randomized by tumor volume and treated with vehicle, compound 1 or poziotinib respectively. Tumor volume and body weight were measured twice per week. Mice were sacrificed on day 21 or day 28, and tumor volume and terminal body weight were recorded. The relative tumor volume, percent of treatment/control values and tumor growth inhibition were calculated and statistics was performed.
(§7) Terminal body weight changes were calculated as percentage of body changes from day 1 to day 21.

LU-01-0493 = test: Patient derived xenograft (PDX) mouse model; type: in vivo, nude mice; details: LU-01-0493, 0.5 mg/kg poziotinib
Description: as §5, §6, §7

LU-0387 = test: Xenograft mouse model LU-0387; type: in vivo, nude mice; details: LU-0387, 0.5 mg/kg poziotinib

SMILES: C=CC(=O)Nc1cc(Nc2nccc(-n3c(=O)n4c5c(cccc53)CCC4)n2)c(OC)cc1N(C)CCN(C)C [Compound 2, N-(2-((2-(dimethylamino)ethyl)(methyl)amino)-4-methoxy-5-((4-(2-oxo-5,6-dihydro-4H-imidazo[4,5,1-ij]quinolin-1(2H)-yl)pyrimidin-2-yl)amino)phenyl)acrylamide]
- IC50 (EGFR-WT): 1.23 nM
- IC50 (EGFR A763_Y764insFHEA): 0.299 nM
- IC50 (EGFR D770-N771insNPG): 0.0815 nM
- IC50 (EGFR D770GY): 0.276 nM
- IC50 [2]: 0.0567 nM
- IC50 (EGFR Del19): 0.107 nM
- IC50 (EGFR L792F): 1.65 nM
- IC50 (EGFR L792H): 46.9 nM
- IC50 (EGFR T790M): 0.0509 nM
- IC50 (EGFR T790M/L858R): 0.0724 nM
- IC50 (HER2): 47 nM
- IC50 (HER4): 1.35 nM
- IC50 [1]: 71.1 nM
- GI50 [3]: 9.15 nM
- GI50 [4]: 23.8 nM
- IC50 [5]: 23 nM

SMILES: C=CC(=O)Nc1cc(Nc2nccc(-n3c(=O)n4c5c(cc(F)cc53)CCC4)n2)c(OC)nc1N(C)CCN(C)C [Compound 3, N-(2-((2-(dimethylamino)ethyl)(methyl)amino)-5-((4-(8-fluoro-2-oxo-5,6-dihydro-4H-imidazo[4,5,1-ij]quinolin-1(2H)-yl)pyrimidin-2-yl)amino)-6-methoxypyridin-3-yl)acrylamide]
- IC50 [1]: 389 nM
- GI50 [3]: 3.18 nM
- GI50 [4]: 13.9 nM
- IC50 [5]: 16 nM

SMILES: C=CC(=O)Nc1cc(Nc2nccc(-n3c(=O)n4c5c(cccc53)CCC4)n2)c(OC)nc1N(C)CCN(C)C [Compound 4, N-(2-((2-(dimethylamino)ethyl)(methyl)amino)-6-methoxy-5-((4-(2-oxo-5,6-dihydro-4H-imidazo[4,5,1-ij]quinolin-1(2H)-yl)pyrimidin-2-yl)amino)pyridin-3-yl)acrylamide]
- IC50 (EGFR-WT): 0.552 nM
- IC50 (EGFR A763_Y764insFHEA): 0.143 nM
- IC50 (EGFR D770-N771insNPG): 0.0554 nM
- IC50 (EGFR D770GY): 0.13 nM
- IC50 [2]: 0.0514 nM
- IC50 (EGFR Del19): 0.233 nM
- IC50 (EGFR L792F): 0.415 nM
- IC50 (EGFR L792H): 15.6 nM
- IC50 (EGFR T790M): 0.0573 nM
- IC50 (EGFR T790M/L858R): 0.0841 nM
- IC50 (HER2): 34.6 nM
- IC50 (HER4): 0.694 nM
- IC50 [1]: 154 nM
- GI50 [3]: 5.08 nM
- GI50 [4]: 15.7 nM
- IC50 [5]: 12.4 nM

SMILES: C=CC(=O)Nc1cc(Nc2nccc(-n3c(=O)n4c5c(cc(F)cc53)CCC4)n2)c(OCC(F)(F)F)nc1N(C)CCN(C)C [Compound 5, N-(2-((2-(dimethylamino)ethyl)(methyl)amino)-5-((4-(8-fluoro-2-oxo-5,6-dihydro-4H-imidazo[4,5,1-ij]quinolin-1(2H)-yl)pyrimidin-2-yl)amino)-6-(2,2,2-trifluoroethoxy)pyridin-3-yl)acrylamide]
- IC50 [1]: 154 nM
- GI50 [3]: 5.07 nM
- GI50 [4]: 14.9 nM
- IC50 [5]: 15.8 nM

SMILES: C=CC(=O)Nc1cc(Nc2nccc(-n3c(=O)n4c5c(cccc53)CCC4)n2)c(OCC(F)(F)F)nc1N(C)CCN(C)C [Compound 6, N-(2-((2-(dimethylamino)ethyl)(methyl)amino)-5-((4-(2-oxo-5,6-dihydro-4H-imidazo[4,5,1-ij]quinolin-1(2H)-yl)pyrimidin-2-yl)amino)-6-(2,2,2-trifluoroethoxy)pyridin-3-yl)acrylamide]
- IC50 (EGFR-WT): 0.451 nM
- IC50 (EGFR A763_Y764insFHEA): 0.149 nM
- IC50 (EGFR D770-N771insNPG): 0.0688 nM
- IC50 (EGFR D770GY): 0.0489 nM
- IC50 [2]: 0.0834 nM
- IC50 (EGFR Del19): 0.14 nM
- IC50 (EGFR L792F): 4.09 nM
- IC50 (EGFR L792H): > 100 nM
- IC50 (EGFR T790M): 0.0656 nM
- IC50 (EGFR T790M/L858R): 0.0865 nM
- IC50 (HER2): 25.1 nM
- IC50 (HER4): 0.725 nM
- IC50 [1]: 140 nM
- GI50 [3]: 3.47 nM
- GI50 [4]: 13.3 nM
- IC50 [5]: 14.8 nM

SMILES: C=CC(=O)Nc1cc(Nc2nccc(-n3c(=O)n4c5c(cc(F)cc53)CCC4)n2)c(OC)cc1N(C)CCN1CCC1 [Compound 25, N-(2-((2-(azetidin-1-yl)ethyl)(methyl)amino)-5-((4-(8-fluoro-2-oxo-5,6-dihydro-4H-imidazo[4,5,1-ij]quinolin-1(2H)-yl)pyrimidin-2-yl)amino)-4-methoxyphenyl)acrylamide]
- IC50 [1]: 386 nM
- GI50 [3]: 12.4 nM
- GI50 [4]: 23.4 nM
- IC50 [5]: 25.4 nM

SMILES: [2H]C([2H])([2H])N(C)CCN(C)c1cc(OC)c(Nc2nccc(-n3c(=O)n4c5c(cc(F)cc53)CCC4)n2)cc1NC(=O)C=C [Compound 28, N-(5-((4-(8-fluoro-2-oxo-5,6-dihydro-4H-imidazo[4,5,1-ij]quinolin-1(2H)-yl)pyrimidin-2-yl)amino)-4-methoxy-2-(methyl(2-(methyl(methyl-d3)amino)ethyl)amino)phenyl) acrylamide]
- IC50 [1]: 256 nM
- GI50 [3]: 5.13 nM
- GI50 [4]: 14.3 nM
- IC50 [5]: 32.2 nM

SMILES: [2H]C([2H])([2H])N(CCN(C)c1cc(OC)c(Nc2nccc(-n3c(=O)n4c5c(cc(F)cc53)CCC4)n2)cc1NC(=O)C=C)C([2H])([2H])[2H] [Compound 29, N-(2-((2-(bis(methyl-d3)amino)ethyl)(methyl)amino)-5-((4-(8-fluoro-2-oxo-5,6-dihydro-4H-imidazo[4,5,1-ij]quinolin-1(2H)-yl)pyrimidin-2-yl)amino)-4-methoxyphenyl)acrylamide]
- IC50 [1]: 188 nM
- GI50 [3]: 9.03 nM
- GI50 [4]: 23.4 nM
- IC50 [5]: 21 nM

SMILES: [2H]C([2H])([2H])Oc1cc(N(C)CCN(C)C)c(NC(=O)C=C)cc1Nc1nccc(-n2c(=O)n3c4c(cc(F)cc42)CCC3)n1 [Compound 42, N-(2-((2-(dimethylamino)ethyl)(methyl)amino)-5-((4-(8-fluoro-2-oxo-5,6-dihydro-4H-imidazo[4,5,1-ij]quinolin-1(2H)-yl)pyrimidin-2-yl)amino)-4-(methoxy-d3)phenyl)acrylamide]
- IC50 [1]: 301 nM
- GI50 [3]: 5.61 nM
- GI50 [4]: 13.9 nM
- IC50 [5]: 14.6 nM

SMILES: [2H]C([2H])([2H])Oc1cc(N(C)CCN(C)C([2H])([2H])[2H])c(NC(=O)C=C)cc1Nc1nccc(-n2c(=O)n3c4c(cc(F)cc42)CCC3)n1 [Compound 43, N-(5-((4-(8-fluoro-2-oxo-5,6-dihydro-4H-imidazo[4,5,1-ij]quinolin-1(2H)-yl)pyrimidin-2-yl)amino)-4-(methoxy-d3)-2-(methyl(2-(methyl(methyl-d3)amino)ethyl)amino)phenyl) acrylamide]
- IC50 [1]: 254 nM
- GI50 [3]: 6.65 nM
- GI50 [4]: 16.6 nM
- IC50 [5]: 19.8 nM

SMILES: C=CC(=O)N1CCC(Oc2cc3c(Nc4ccc(Cl)c(Cl)c4F)ncnc3cc2OC)CC1 [poziotinib, reference compound]
- TGI (%) (LU-01-0426): 91.3%
- Terminal body weight changes (%) (LU-01-0426; day 1 to day 21): −7.4%
- TGI (%) (LU-01-0493): 56.8%
- Terminal body weight changes (%) (LU-01-0493; day 1 to day 21): −12.4%
- TGI (%) (LU-0387): 74.49%
- Terminal body weight changes (%) (LU-0387; day 1 to day 21): 0%

— US11993598B2, “Compounds for inhibiting EGFR kinase, preparation methods and uses thereof” (WIGEN BIOMEDICINE TECHNOLOGY (SHANGHAI) CO., LTD., priority 2019, dated 2024)
